Assay results taken from ChEMBL document CHEMBL3885861, “Open TG-GATES”.

Organism: Rattus norvegicus
Experiment: Open TG-GATES - Regimen: Daily Repeat
Type: toxicity, organism-based, Sprague-Dawley
Design: regimen Daily Repeat, gender Male, age 6 weeks
Settings: in vivo, po, route gavage; for APTT / Bas / Eos / Fbg / Hb / Ht / Lym / MCH / MCHC / MCV / Mono / Neu / PT / Plat / RBC / Ret / WBC: tissue Blood; for KIDNEY_L / KIDNEY_R / KIDNEY_TOTAL: tissue Kidney; for LIVER: tissue Liver; for A/G / ALP / ALT / AST / BUN / CRE / Ca / Cl / DBIL / GLC / IP / K / LDH / Na / PL / RALB / TBIL / TC / TG / TP / gamma-GTP: tissue Plasma
[1] = 100 mg/kg, 72 h, dose level Middle, time 3 day
[2] = 100 mg/kg, […], dose level Middle, time 7 day
[3] = 100 mg/kg, […], dose level Middle, time 14 day
[4] = 100 mg/kg, […], dose level Middle, time 28 day
[5] = 300 mg/kg, 72 h, dose level High, time 3 day
[6] = 300 mg/kg, […], dose level High, time 7 day
[7] = 300 mg/kg, […], dose level High, time 14 day
[8] = 300 mg/kg, […], dose level High, time 28 day

Brc1ccccc1 [BROMOBENZENE]
TERMINAL_BW [1]: 207.5 g
APTT [1]: 14.7 s
Bas [1]: 0.2%
Eos [1]: 1%
Fbg [1]: 300.2 mg/dL
Hb [1]: 12.9 g/dL
Ht [1]: 38.4%
Lym [1]: 74.2%
MCH [1]: 20.5 pg
MCHC [1]: 33.5%
MCV [1]: 61.1 fL
Mono [1]: 3.5%
Neu [1]: 20.5%
PT [1]: 11.8 s
Plat [1]: 118.8 x10_4/uL
RBC [1]: 629 x10_4/ul
Ret [1]: 6.2%
WBC [1]: 95.6 x10_2/uL
KIDNEY_L [1]: 0.9 g
KIDNEY_R [1]: 0.9 g
KIDNEY_TOTAL [1]: 1.8 g
LIVER [1]: 11.6 g
A/G [1]: 0.9
ALP [1]: 1811.5 IU/L
ALT [1]: 56.5 IU/L
AST [1]: 78.5 IU/L
BUN [1]: 13 mg/dL
CRE [1]: 0.2 mg/dL
Ca [1]: 10.4 mg/dL
Cl [1]: 106 meq/L
DBIL [1]: 0.015 mg/dL
GLC [1]: 179.8 mg/dL
IP [1]: 6.4 mg/dL
K [1]: 4.1 meq/L
LDH [1]: 101.8 IU/L
Na [1]: 142.2 meq/L
PL [1]: 166.8 mg/dL
RALB [1]: 2.7 g/dL
TBIL [1]: 0.0575 mg/dL
TC [1]: 88 mg/dL
TG [1]: 66 mg/dL
TP [1]: 5.7 g/dL
gamma-GTP [1]: 1.2 IU/L
TERMINAL_BW [2]: 245.7 g
TERMINAL_BW [3]: 288.5 g
TERMINAL_BW [4]: 381.1 g
APTT [2]: 13.4 s
Bas [2]: 0%
Eos [2]: 1%
Fbg [2]: 317.4 mg/dL
Hb [2]: 13.3 g/dL
Ht [2]: 39.3%
Lym [2]: 75.8%
MCH [2]: 21.2 pg
MCHC [2]: 33.9%
MCV [2]: 62.5 fL
Mono [2]: 3%
Neu [2]: 19.8%
PT [2]: 12.2 s
Plat [2]: 112.7 x10_4/uL
RBC [2]: 629 x10_4/ul
Ret [2]: 6.9%
WBC [2]: 98.3 x10_2/uL
APTT [3]: 16.8 s
Bas [3]: 0%
Eos [3]: 1%
Fbg [3]: 326.4 mg/dL
Hb [3]: 14.2 g/dL
Ht [3]: 40.9%
Lym [3]: 78%
MCH [3]: 20.7 pg
MCHC [3]: 34.7%
MCV [3]: 59.8 fL
Mono [3]: 2.8%
Neu [3]: 18.2%
PT [3]: 11.9 s
Plat [3]: 113.2 x10_4/uL
RBC [3]: 685.4 x10_4/ul
Ret [3]: 4.6%
WBC [3]: 74.5 x10_2/uL
APTT [4]: 17.1 s
Bas [4]: 0%
Eos [4]: 1%
Fbg [4]: 304.8 mg/dL
Hb [4]: 14.6 g/dL
Ht [4]: 41.5%
Lym [4]: 73.8%
MCH [4]: 19.3 pg
MCHC [4]: 35.1%
MCV [4]: 55.1 fL
Mono [4]: 3%
Neu [4]: 21.2%
PT [4]: 12.9 s
Plat [4]: 109.2 x10_4/uL
RBC [4]: 754.6 x10_4/ul
Ret [4]: 2.6%
WBC [4]: 103.2 x10_2/uL
KIDNEY_L [2]: 1.1 g
KIDNEY_R [2]: 1.1 g
KIDNEY_TOTAL [2]: 2.2 g
KIDNEY_L [3]: 1.1 g
KIDNEY_R [3]: 1.1 g
KIDNEY_TOTAL [3]: 2.2 g
KIDNEY_L [4]: 1.4 g
KIDNEY_R [4]: 1.4 g
KIDNEY_TOTAL [4]: 2.7 g
LIVER [2]: 12.8 g
LIVER [3]: 13.7 g
LIVER [4]: 17 g
A/G [2]: 0.8
ALP [2]: 1614.4 IU/L
ALT [2]: 43.4 IU/L
AST [2]: 65 IU/L
BUN [2]: 14.8 mg/dL
CRE [2]: 0.2 mg/dL
Ca [2]: 11.1 mg/dL
Cl [2]: 105.2 meq/L
DBIL [2]: 0.014 mg/dL
GLC [2]: 193.2 mg/dL
IP [2]: 7.1 mg/dL
K [2]: 4 meq/L
LDH [2]: 99.8 IU/L
Na [2]: 143 meq/L
PL [2]: 149 mg/dL
RALB [2]: 2.7 g/dL
TBIL [2]: 0.048 mg/dL
TC [2]: 71.6 mg/dL
TG [2]: 84.8 mg/dL
TP [2]: 5.9 g/dL
gamma-GTP [2]: 1 IU/L
A/G [3]: 0.8
ALP [3]: 1557.8 IU/L
ALT [3]: 39.6 IU/L
AST [3]: 63.4 IU/L
BUN [3]: 14.6 mg/dL
CRE [3]: 0.2 mg/dL
Ca [3]: 10.9 mg/dL
Cl [3]: 107 meq/L
DBIL [3]: 0.008 mg/dL
GLC [3]: 185.6 mg/dL
IP [3]: 5.9 mg/dL
K [3]: 4 meq/L
LDH [3]: 56.6 IU/L
Na [3]: 143.6 meq/L
PL [3]: 150.4 mg/dL
RALB [3]: 2.8 g/dL
TBIL [3]: 0.046 mg/dL
TC [3]: 71.2 mg/dL
TG [3]: 100.6 mg/dL
TP [3]: 6.1 g/dL
gamma-GTP [3]: 1 IU/L
A/G [4]: 0.8
ALP [4]: 1105.2 IU/L
ALT [4]: 40.8 IU/L
AST [4]: 61.8 IU/L
BUN [4]: 15.4 mg/dL
CRE [4]: 0.3 mg/dL
Ca [4]: 10.6 mg/dL
Cl [4]: 105.6 meq/L
DBIL [4]: 0.016 mg/dL
GLC [4]: 198.8 mg/dL
IP [4]: 5.8 mg/dL
K [4]: 3.9 meq/L
LDH [4]: 86.2 IU/L
Na [4]: 142.4 meq/L
PL [4]: 140.8 mg/dL
RALB [4]: 2.8 g/dL
TBIL [4]: 0.04 mg/dL
TC [4]: 72.8 mg/dL
TG [4]: 108.8 mg/dL
TP [4]: 6.3 g/dL
gamma-GTP [4]: 1 IU/L
TERMINAL_BW [5]: 204.3 g
APTT [5]: 21.2 s
Bas [5]: 0.6%
Eos [5]: 1%
Fbg [5]: 259.2 mg/dL
Hb [5]: 13.1 g/dL
Ht [5]: 38.3%
Lym [5]: 78.4%
MCH [5]: 21.2 pg
MCHC [5]: 34.2%
MCV [5]: 62.1 fL
Mono [5]: 3%
Neu [5]: 16.4%
PT [5]: 12 s
Plat [5]: 109.8 x10_4/uL
RBC [5]: 616.6 x10_4/ul
Ret [5]: 4.2%
WBC [5]: 105.2 x10_2/uL
KIDNEY_L [5]: 0.9 g
KIDNEY_R [5]: 0.9 g
KIDNEY_TOTAL [5]: 1.8 g
LIVER [5]: 12 g
A/G [5]: 0.9
ALP [5]: 1821.4 IU/L
ALT [5]: 70.8 IU/L
AST [5]: 110.6 IU/L
BUN [5]: 12.4 mg/dL
CRE [5]: 0.2 mg/dL
Ca [5]: 10.5 mg/dL
Cl [5]: 104.8 meq/L
DBIL [5]: 0.02 mg/dL
GLC [5]: 177.6 mg/dL
IP [5]: 7 mg/dL
K [5]: 4.1 meq/L
LDH [5]: 124.2 IU/L
Na [5]: 141.8 meq/L
PL [5]: 184.6 mg/dL
RALB [5]: 2.6 g/dL
TBIL [5]: 0.08 mg/dL
TC [5]: 96.4 mg/dL
TG [5]: 88.4 mg/dL
TP [5]: 5.4 g/dL
gamma-GTP [5]: 1.4 IU/L
TERMINAL_BW [6]: 239.4 g
TERMINAL_BW [7]: 287 g
TERMINAL_BW [8]: 359.9 g
APTT [6]: 17.1 s
Bas [6]: 0%
Eos [6]: 0.6%
Fbg [6]: 278.2 mg/dL
Hb [6]: 12.6 g/dL
Ht [6]: 36.8%
Lym [6]: 74.4%
MCH [6]: 21.3 pg
MCHC [6]: 34.3%
MCV [6]: 62.3 fL
Mono [6]: 3.2%
Neu [6]: 21.4%
PT [6]: 12.4 s
Plat [6]: 117.3 x10_4/uL
RBC [6]: 591.2 x10_4/ul
Ret [6]: 6.9%
WBC [6]: 101.2 x10_2/uL
APTT [7]: 18.6 s
Bas [7]: 0%
Eos [7]: 0.6%
Fbg [7]: 288.4 mg/dL
Hb [7]: 13.4 g/dL
Ht [7]: 39.2%
Lym [7]: 78.4%
MCH [7]: 20.3 pg
MCHC [7]: 34.1%
MCV [7]: 59.5 fL
Mono [7]: 2.6%
Neu [7]: 17.8%
PT [7]: 12.2 s
Plat [7]: 118 x10_4/uL
RBC [7]: 658 x10_4/ul
Ret [7]: 5.1%
WBC [7]: 106.3 x10_2/uL
APTT [8]: 18.2 s
Bas [8]: 0%
Eos [8]: 1%
Fbg [8]: 295.8 mg/dL
Hb [8]: 14.6 g/dL
Ht [8]: 42.5%
Lym [8]: 73.2%
MCH [8]: 19.1 pg
MCHC [8]: 34.4%
MCV [8]: 55.5 fL
Mono [8]: 2.6%
Neu [8]: 23%
PT [8]: 12.7 s
Plat [8]: 96.5 x10_4/uL
RBC [8]: 765 x10_4/ul
Ret [8]: 2.5%
WBC [8]: 120.7 x10_2/uL
KIDNEY_L [6]: 1 g
KIDNEY_R [6]: 1 g
KIDNEY_TOTAL [6]: 2 g
KIDNEY_L [7]: 1.1 g
KIDNEY_R [7]: 1.1 g
KIDNEY_TOTAL [7]: 2.2 g
KIDNEY_L [8]: 1.5 g
KIDNEY_R [8]: 1.5 g
KIDNEY_TOTAL [8]: 2.9 g
LIVER [6]: 13.4 g
LIVER [7]: 15.2 g
LIVER [8]: 17.7 g
A/G [6]: 0.9
ALP [6]: 1637 IU/L
ALT [6]: 44 IU/L
AST [6]: 65.2 IU/L
BUN [6]: 12.8 mg/dL
CRE [6]: 0.2 mg/dL
Ca [6]: 11.3 mg/dL
Cl [6]: 105.6 meq/L
DBIL [6]: 0.012 mg/dL
GLC [6]: 187.4 mg/dL
IP [6]: 7 mg/dL
K [6]: 4 meq/L
LDH [6]: 99.6 IU/L
Na [6]: 144.2 meq/L
PL [6]: 171.2 mg/dL
RALB [6]: 2.8 g/dL
TBIL [6]: 0.052 mg/dL
TC [6]: 88 mg/dL
TG [6]: 94.8 mg/dL
TP [6]: 6 g/dL
gamma-GTP [6]: 1 IU/L
A/G [7]: 0.8
ALP [7]: 1442.4 IU/L
ALT [7]: 45.8 IU/L
AST [7]: 69.4 IU/L
BUN [7]: 15 mg/dL
CRE [7]: 0.2 mg/dL
Ca [7]: 10.8 mg/dL
Cl [7]: 106.4 meq/L
DBIL [7]: 0.01 mg/dL
GLC [7]: 185.2 mg/dL
IP [7]: 6.4 mg/dL
K [7]: 4 meq/L
LDH [7]: 63.2 IU/L
Na [7]: 144 meq/L
PL [7]: 180.4 mg/dL
RALB [7]: 2.8 g/dL
TBIL [7]: 0.04 mg/dL
TC [7]: 89.4 mg/dL
TG [7]: 123.2 mg/dL
TP [7]: 6.1 g/dL
gamma-GTP [7]: 1.2 IU/L
A/G [8]: 0.8
ALP [8]: 1183.4 IU/L
ALT [8]: 42.8 IU/L
AST [8]: 65.4 IU/L
BUN [8]: 15.2 mg/dL
CRE [8]: 0.2 mg/dL
Ca [8]: 10.4 mg/dL
Cl [8]: 106.8 meq/L
DBIL [8]: 0.022 mg/dL
GLC [8]: 185.2 mg/dL
IP [8]: 5.6 mg/dL
K [8]: 4 meq/L
LDH [8]: 73 IU/L
Na [8]: 143.4 meq/L
PL [8]: 165.4 mg/dL
RALB [8]: 2.7 g/dL
TBIL [8]: 0.048 mg/dL
TC [8]: 79.8 mg/dL
TG [8]: 154.2 mg/dL
TP [8]: 6.2 g/dL
gamma-GTP [8]: 1.2 IU/L
